Results: ChEMBL document CHEMBL4396937, “Synthesis of new triazole fused imidazo[2,1-b]thiazole hybrids with emphasis on Staphylococcus aureus virulence factors” (Bioorg Med Chem Lett, 2019)
≈ marks a conversion by molar mass, not a printed value. Calls of active or inactive are those of the source. No cut-off for these calls is given here.

What was measured:
Staphylococcus aureus [1] = experiment: Antibacterial activity against Staphylococcus aureus MLS-16 MTCC 2940 assessed as reduction in bacterial growth incubated for 24 hrs by agar well diffusion method; format: functional; conditions: MLS-16 MTCC 2940, 24 h
Pseudomonas aeruginosa [2] = experiment: Bactericidal activity against Pseudomonas aeruginosa MTCC 2453 assessed as reduction in bacterial survival incubated for 24 hrs followed by transfer of microbial suspension to agar plates and measured at 24 hrs post transfer by agar well diffusion method; format: functional; conditions: MTCC 2453, 24 h
Escherichia coli [3] = experiment: Antibacterial activity against Escherichia coli MTCC 739 assessed as reduction in bacterial growth incubated for 24 hrs by agar well diffusion method; format: functional; conditions: MTCC 739, 24 h
Staphylococcus aureus [4] = experiment: Antibiofilm activity against Staphylococcus aureus MTCC 96 assessed as inhibition of biofilm formation incubated for 48 hrs in presence of Escherichia coli MTCC 739 by FE-SEM analysis; format: functional, organism-based; conditions: MTCC 96, 48 h
Staphylococcus aureus [5] = experiment: Bactericidal activity against Staphylococcus aureus MLS-16 MTCC 2940 assessed as reduction in bacterial survival incubated for 24 hrs followed by transfer of microbial suspension to agar plates and measured at 24 hrs post transfer by agar well diffusion method; format: functional; conditions: MLS-16 MTCC 2940, 24 h
Bacillus subtilis [6] = experiment: Antibiofilm activity against Bacillus subtilis MTCC 121 assessed as inhibition of biofilm formation by crystal violet staining-based microtitre plate assay; format: functional, organism-based
Staphylococcus aureus [7] = experiment: Antibacterial activity against Staphylococcus aureus MTCC 96 assessed as reduction in bacterial growth incubated for 24 hrs by agar well diffusion method; format: functional; conditions: MTCC 96, 24 h
Raoultella planticola [8] = experiment: Bactericidal activity against Klebsiella planticola MTCC 530 assessed as reduction in bacterial survival incubated for 24 hrs followed by transfer of microbial suspension to agar plates and measured at 24 hrs post transfer by agar well diffusion method; format: functional; conditions: MTCC 530, 24 h
Staphylococcus aureus [9] = experiment: Bactericidal activity against Staphylococcus aureus MTCC 96 assessed as reduction in bacterial survival incubated for 24 hrs followed by transfer of microbial suspension to agar plates and measured at 24 hrs post transfer by agar well diffusion method; format: functional; conditions: MTCC 96, 24 h
Staphylococcus aureus [10] = experiment: Antibiofilm activity against Staphylococcus aureus MTCC 96 assessed as inhibition of biofilm formation by crystal violet staining-based microtitre plate assay; format: functional, organism-based
Escherichia coli [11] = experiment: Bactericidal activity against Escherichia coli MTCC 739 assessed as reduction in bacterial survival incubated for 24 hrs followed by transfer of microbial suspension to agar plates and measured at 24 hrs post transfer by agar well diffusion method; format: functional; conditions: MTCC 739, 24 h
Pseudomonas aeruginosa [12] = experiment: Antibacterial activity against Pseudomonas aeruginosa MTCC 2453 assessed as reduction in bacterial growth incubated for 24 hrs by agar well diffusion method; format: functional; conditions: MTCC 2453, 24 h
Micrococcus luteus [13] = experiment: Antibacterial activity against Micrococcus luteus MTCC 2470 assessed as reduction in bacterial growth incubated for 24 hrs by agar well diffusion method; format: functional; conditions: MTCC 2470, 24 h
Candida albicans [14] = experiment: Antifungal activity against Candida albicans MTCC 3017 assessed as reduction in fungal growth incubated for 24 hrs by agar well diffusion method; format: functional
Micrococcus luteus [15] = experiment: Bactericidal activity against Micrococcus luteus MTCC 2470 assessed as reduction in bacterial survival incubated for 24 hrs followed by transfer of microbial suspension to agar plates and measured at 24 hrs post transfer by agar well diffusion method; format: functional; conditions: MTCC 2470, 24 h
Micrococcus luteus [16] = experiment: Antibiofilm activity against Micrococcus luteus MTCC 2470 assessed as inhibition of biofilm formation by crystal violet staining-based microtitre plate assay; format: functional, organism-based
Bacillus subtilis [17] = experiment: Antibacterial activity against Bacillus subtilis MTCC 121 assessed as reduction in bacterial growth incubated for 24 hrs by agar well diffusion method; format: functional; conditions: MTCC 121, 24 h
Candida albicans [18] = experiment: Fungicidal activity against Candida albicans MTCC 3017 assessed as reduction in fungal survival incubated for 24 hrs followed by transfer of microbial suspension to agar plates and measured at 24 hrs post transfer by agar well diffusion method; format: functional
Raoultella planticola [19] = experiment: Antibiofilm activity against Klebsiella planticola MTCC 530 assessed as inhibition of biofilm formation by crystal violet staining-based microtitre plate assay; format: functional, organism-based
Bacillus subtilis [20] = experiment: Bactericidal activity against Bacillus subtilis MTCC 121 assessed as reduction in bacterial survival incubated for 24 hrs followed by transfer of microbial suspension to agar plates and measured at 24 hrs post transfer by agar well diffusion method; format: functional; conditions: MTCC 121, 24 h
Staphylococcus aureus [21] = experiment: Antibiofilm activity against Staphylococcus aureus MLS-16 MTCC 2940 assessed as inhibition of biofilm formation by crystal violet staining-based microtitre plate assay; format: functional, organism-based
Raoultella planticola [22] = experiment: Antibacterial activity against Klebsiella planticola MTCC 530 assessed as reduction in bacterial growth incubated for 24 hrs by agar well diffusion method; format: functional; conditions: MTCC 530, 24 h
Pseudomonas aeruginosa [23] = experiment: Antibiofilm activity against Pseudomonas aeruginosa MTCC 2453 assessed as inhibition of biofilm formation by crystal violet staining-based microtitre plate assay; format: functional, organism-based
MRC5 = experiment: Cytotoxicity against human MRC5 cells assessed as reduction in cell viability incubated for 48 hrs by MTT assay; format: cell-based; conditions: MRC5, 48 h
Escherichia coli [24] = experiment: Antibiofilm activity against Escherichia coli MTCC 739 assessed as inhibition of biofilm formation by crystal violet staining-based microtitre plate assay; format: functional, organism-based

MIC (Staphylococcus aureus [1]) [µg/mL]	MIC (Escherichia coli [3]) [µg/mL]	IC50 (Bacillus subtilis [6]) [µg/mL]	MIC (Staphylococcus aureus [7]) [µg/mL]	IC50 (Staphylococcus aureus [10]) [µg/mL]	MIC (Pseudomonas aeruginosa [12]) [µg/mL]	MIC (Micrococcus luteus [13]) [µg/mL]	IC50 (Micrococcus luteus [16]) [µg/mL]	MIC (Bacillus subtilis [17]) [µg/mL]	IC50 (Staphylococcus aureus [21]) [µg/mL]	IC50 (Pseudomonas aeruginosa [23]) [µg/mL]	Compound	MBC (Pseudomonas aeruginosa [2]) [µg/mL]	MBC (Staphylococcus aureus [5]) [µg/mL]	MBC (Raoultella planticola [8]) [µg/mL]	MBC (Staphylococcus aureus [9]) [µg/mL]	MBC (Escherichia coli [11]) [µg/mL]	MBC (Micrococcus luteus [15]) [µg/mL]	IC50 (Raoultella planticola [19]) [µg/mL]	MBC (Bacillus subtilis [20]) [µg/mL]	MIC (Raoultella planticola [22]) [µg/mL]	further results
1.9 (≈ 4.06 µM)	1.9 (≈ 4.06 µM)	13.5 (≈ 28.8 µM)	1.9 (≈ 4.06 µM)	13.5 (≈ 28.8 µM)	3.9 (≈ 8.33 µM)	3.9 (≈ 8.33 µM)	12.3 (≈ 26.3 µM)	3.9 (≈ 8.33 µM)	12.8 (≈ 27.3 µM)	18.2 (≈ 38.9 µM)	O=C(c1cn(-c2ccc(F)cc2Br)nn1)c1c(-c2ccccc2)nc2sccn12	7.8 (≈ 16.7 µM)	3.9 (≈ 8.33 µM)	7.8 (≈ 16.7 µM)	3.9 (≈ 8.33 µM)	3.9 (≈ 8.33 µM)	7.8 (≈ 16.7 µM)	17.3 (≈ 36.9 µM)	7.8 (≈ 16.7 µM)	3.9 (≈ 8.33 µM)	IC50 (Escherichia coli [24]): 18.2 µg/mL (≈ 38.9 µM); MIC (Candida albicans [14]; MTCC 3017, 24 h): 7.8 µg/mL (≈ 16.7 µM); MFC (Candida albicans [18]; MTCC 3017, 24 h): 15.6 µg/mL (≈ 33.3 µM); IC50 (MRC5): 48.2 µg/mL (≈ 103 µM)
7.8 (≈ 16.1 µM)	3.9 (≈ 8.05 µM)	13.5 (≈ 27.8 µM)	3.9 (≈ 8.05 µM)	21.3 (≈ 43.9 µM)	3.9 (≈ 8.05 µM)	3.9 (≈ 8.05 µM)	16 (≈ 33 µM)	3.9 (≈ 8.05 µM)	14 (≈ 28.9 µM)	17.5 (≈ 36.1 µM)	O=C(c1cn(-c2ccc(Br)cc2)nn1)c1c(-c2ccc(Cl)cc2)nc2sccn12	7.8 (≈ 16.1 µM)	15.6 (≈ 32.2 µM)	15.6 (≈ 32.2 µM)	7.8 (≈ 16.1 µM)	7.8 (≈ 16.1 µM)	7.8 (≈ 16.1 µM)	20.5 (≈ 42.3 µM)	7.8 (≈ 16.1 µM)	3.9 (≈ 8.05 µM)	IC50 (Escherichia coli [24]): 16.2 µg/mL (≈ 33.4 µM); MIC (Candida albicans [14]; MTCC 3017, 24 h): 7.8 µg/mL (≈ 16.1 µM); MFC (Candida albicans [18]; MTCC 3017, 24 h): 15.6 µg/mL (≈ 32.2 µM); IC50 (MRC5): 37.3 µg/mL (≈ 76.9 µM)

Compound	MIC (Staphylococcus aureus [1]) [µg/mL]	MIC (Escherichia coli [3]) [µg/mL]	IC50 (Bacillus subtilis [6]) [µg/mL]	MIC (Staphylococcus aureus [7]) [µg/mL]	IC50 (Staphylococcus aureus [10]) [µg/mL]	MIC (Pseudomonas aeruginosa [12]) [µg/mL]	MIC (Micrococcus luteus [13]) [µg/mL]	IC50 (Micrococcus luteus [16]) [µg/mL]	MIC (Bacillus subtilis [17]) [µg/mL]	IC50 (Staphylococcus aureus [21]) [µg/mL]	IC50 (Pseudomonas aeruginosa [23]) [µg/mL]	MBC (Pseudomonas aeruginosa [2]) [µg/mL]	MBC (Staphylococcus aureus [5]) [µg/mL]	MBC (Raoultella planticola [8]) [µg/mL]	MBC (Staphylococcus aureus [9]) [µg/mL]	MBC (Escherichia coli [11]) [µg/mL]	MBC (Micrococcus luteus [15]) [µg/mL]	IC50 (Raoultella planticola [19]) [µg/mL]	MBC (Bacillus subtilis [20]) [µg/mL]	MIC (Raoultella planticola [22]) [µg/mL]	further results
O=C(O)c1cn(C2CC2)c2cc(N3CCNCC3)c(F)cc2c1=O [CIPROFLOXACIN]	0.9 (≈ 2.72 µM)	0.9 (≈ 2.72 µM)	6.6 (≈ 19.9 µM)	0.9 (≈ 2.72 µM)	6.7 (≈ 20.2 µM)	0.9 (≈ 2.72 µM)	0.9 (≈ 2.72 µM)	6.8 (≈ 20.5 µM)	0.9 (≈ 2.72 µM)	6.6 (≈ 19.9 µM)	7.4 (≈ 22.3 µM)	1.9 (≈ 5.73 µM)	1.9 (≈ 5.73 µM)	1.9 (≈ 5.73 µM)	1.9 (≈ 5.73 µM)	1.9 (≈ 5.73 µM)	1.9 (≈ 5.73 µM)	8.6 (≈ 26 µM)	1.9 (≈ 5.73 µM)	0.9 (≈ 2.72 µM)	IC50 (Staphylococcus aureus [4]): 11.6 µg/mL; MIC (Candida albicans [14]): inactive; MFC (Candida albicans [18]): inactive; IC50 (MRC5): 53.4 µg/mL (≈ 161 µM)
